Legend:
Type in all cases: in vivo, Rats
[1] = tested on: Streptozotocin-nicotinamide induced Type-2 diabetes (T2DM); test: Streptozotocin-nicotinamide induced Type-2 diabetes: plasma glucose; conditions: 5 mg/kg oral gavage
Experimental: (§1) The objective of the study is to evaluate pharmaceutical preparation in Type-2 diabetes mellitus (T2DM) and to compare efficacy of these in comparison to standard hypoglycemic agent pioglitazone.
(§2) Experimental model: Streptozotocin-nicotinamide induced Type-2 diabetes (T2DM): Single intraperitoneal injection of nicotinamide and streptozotocin was administered. Dose: STZ (45 mg/kg for rats)+Nicotinamide (230 mg/kg for rats) for T2DM pharmaceutical preparation (45.90 & 180 mg/kg). Route: STZ & Nicotinamide were administered intraperitoneally (i.p.). Pharmaceutical preparation & pioglitazone were administered per orally (oral gavage). Volume Administered: Rat—5 mL/kg Animals: Rats of Wistar strain weighing from 150-200 g of either sex used for the study. The animals were housed under optimal laboratory conditions, maintained on a natural (12 h) light and (12 h) dark cycle and had free access to food and water ad libitum. Animals were acclimatized to laboratory conditions before the tests. Study Design: Animals were divided into 6 groups of 5-8 animals in each group: • a) Group I: Control or vehicle treated group • b) Group II: Type 2 diabetic group • c) Group III: Diabetic animals+pharmaceutical preparation (45 mg/kg) • d) Group IV: Diabetic animals+pharmaceutical preparation (90 mg/kg) • e) Group V: Diabetic animals +pharmaceutical preparation (180 mg/kg) • f) Group VI: Diabetic animals+Pioglitazone (5 mg/kg)
(§3) Pharmaceutical preparation was administered after confirmation of diabetes for 28 days.
Parameters to be evaluated: The […]) Body weight, water and food intake was monitored. • b) Blood Glucose Level: Glucose was estimated using diagnostic kits by GOD-POD method and the experiment was conducted following the manufacturer's instructions. • c) Estimation of Glycosylated Haemoglobin (HbA1c): HbA1c is a good indicator of protein glycosylation. Excess of glucose conjugates with proteins to form glycosylated moieties. It was estimated by ion-resin method using commercial kits.

[2] = tested on: Streptozotocin-nicotinamide induced Type-2 diabetes (T2DM); test: Streptozotocin-nicotinamide induced Type-2 diabetes: Glycosylated Haemoglobin (HbA1c); conditions: 5 mg/kg oral gavage
Experimental: as §1, §2, §3
Parameters to be evaluated: The following parameters were evaluated after confirmation of diabetes on day 1, 7, 14, 21 and 28 days. • a) Body weight, water and food intake was monitored. • b) Blood Glucose Level: Glucose was estimated using diagnostic kits by GOD-POD method and the experiment was conducted following the manufacturer's instructions. • c) Estimation of Glycosylated Haemoglobin (HbA1c): HbA1c is a good indicator of protein glycosylation. Excess of glucose conjugates with proteins to form glycosylated moieties. It was estimated by ion-resin method using commercial kits.

[3] = tested on: Streptozotocin (STZ) induced type 1 diabetes (T1DM); test: Oral Glucose Tolerance Test (OGTT) in STZ induced type 1 diabetes; conditions: 10 IU/kg subcutaneous
Experimental: The objective of the study is to evaluate the pharmaceutical preparation in Type-1 Diabetes Mellitus (T1DM) and to compare the efficacy in comparison to standard hypoglycemic agents as insulin. Experimental model: Streptozotocin (STZ) induced type 1 diabetes (T1DM). Dose: STZ (45 mg/kg for rats) for T1DM Route: STZ was administered intraperitoneally (i.p.). Pharmaceutical preparation was administered peroral (p.o.) in three doses. Animals: Rats of Wistar or Sprague Dawley strain weighing from 150-200 g of either sex. The animals were housed under optimal laboratory conditions, maintained on a natural (12 h) light and (12 h) dark cycle and have free access to food and water ad libitum. Animals were acclimatized to laboratory conditions before the tests. Study Design: Animals were divided into 8 groups of 10 animals in each group. • a) Group I: Control or vehicle treated group • b) Group II: Type 1 diabetic group • c) Group III: pharmaceutical preparation (90 mg/kg)+Diabetic animals • d) Group IV: pharmaceutical preparation (180 mg/kg)+Diabetic animals • e) Group V: pharmaceutical preparation (360 mg/kg)+Diabetic animals • f) Group VI: Satcol (60 mg/kg)+Diabetic animals • g) Group VII: pharmaceutical preparation (90 mg/kg)+Insulin (10IU)+Diabetic animals • h) Group VIII: Insulin (10IU)+Diabetic animals Drugs were administered for 28 days after confirmation of diabetes. Parameters to be evaluated: The following parameters were evaluated at confirmation of diabetes and after 28 days of treatment. • a) Body weight, water and food intake was monitored weekly. • b) Blood Glucose Level: Glucose was estimated using diagnostic kits by GOD-POD method and the experiment was conducted following the manufacturer's instructions. • c) Oral Glucose Tolerance Test (OGTT): An oral glucose tolerance test was carried out in conscious rats. For this the rats was fasted overnight and glucose (2 g/kg b.w.) was given from 30% solution by oral gavage. […] for glucose. • d) Measurement of Plasma Insulin Level: Insulin was estimated using insulin ELISA kit (LINCO) and the experiment was conducted following the manufacturer's instructions. It is a solid phase sandwich enzyme-linked immunosorbent assay (ELISA), which uses a microtitre plate reader at 450 nm. Concentrations of insulin were calculated from plotted standard curves. All results were expressed as Mean±SEM. The intergroup variation was measured by one-way analysis of variance (ANOVA) followed by Tukey's test. Statistical significance was considered at P<0.05. The statistical analysis was done using the SPSS Statistical Software version 16 (SPSS Inc. 233 South Wacker Drive, 11th Floor Chicago, IL 60606-6412).

[4] = tested on: Streptozotocin (STZ) induced type 1 diabetes (T1DM); test: Streptozotocin (STZ) induced type 1 diabetes: plasma glucose, body weight, food intake, water intake, urine output; conditions: 10 IU/kg subcutaneous
Experimental: The objective of the study is to evaluate the pharmaceutical preparation in Type-1 Diabetes Mellitus (T1DM) and to compare the efficacy in comparison to standard hypoglycemic agents as insulin. Experimental model: Streptozotocin (STZ) induced type 1 diabetes (T1DM). Dose: STZ (45 mg/kg for rats) for T1DM Route: STZ was administered intraperitoneally (i.p.). Pharmaceutical preparation was administered peroral (p.o.) in three doses. Volume Administered: Rat—5 ml/kg Animals: Rats of Wistar or Sprague Dawley strain weighing from 150-200 g of either sex. The animals were housed under optimal laboratory conditions, maintained on a natural (12 h) light and (12 h) dark cycle and have free access to food and water ad libitum. Animals were acclimatized to laboratory conditions before the tests. […] Parameters to be evaluated: The following parameters were evaluated at confirmation of diabetes and after 28 days of treatment. • a) Body weight, water and food intake was monitored weekly. • b) Blood Glucose Level: Glucose was estimated using diagnostic kits by GOD-POD method and the experiment was conducted following the manufacturer's instructions. • c) Oral Glucose Tolerance Test (OGTT): An oral glucose tolerance test was carried out in conscious rats. For this the rats was fasted overnight and glucose (2 g/kg b.w.) was given from 30% solution by oral gavage. Tail blood samples was collected before glucose load and sequentially for every half an hour after glucose load upto 90 minutes and was immediately analysed for glucose. • d) Measurement of Plasma Insulin Level: Insulin was estimated using insulin ELISA kit (LINCO) and the experiment was conducted following the manufacturer's instructions. It is a solid phase sandwich enzyme-linked immunosorbent assay (ELISA), which uses a microtitre plate reader at 450 nm. Concentrations of insulin were calculated from plotted standard curves. All results were expressed as Mean±SEM. The intergroup variation was measured by one-way analysis of variance (ANOVA) followed by Tukey's test. Statistical significance was considered at P<0.05. The statistical analysis was done using the SPSS Statistical Software version 16 (SPSS Inc. 233 South Wacker Drive, 11th Floor Chicago, IL 60606-6412).

[5] = tested on: Streptozotocin (STZ) induced type 1 diabetes (T1DM); test: Plasma insulin level (ELISA) in STZ induced type 1 diabetes; conditions: 10 IU/kg subcutaneous
Experimental: The objective of the study is to evaluate the pharmaceutical preparation in Type-1 Diabetes Mellitus (T1DM) and to compare the efficacy in comparison to standard hypoglycemic agents as insulin. Experimental model: Streptozotocin (STZ) induced type 1 diabetes (T1DM). Dose: STZ (45 mg/kg for rats) for T1DM Route: STZ was administered intraperitoneally (i.p.). Pharmaceutical preparation was administered peroral (p.o.) in three doses. Animals: Rats of Wistar or Sprague Dawley strain weighing from 150-200 g of either sex. The animals were housed under optimal laboratory conditions, maintained on a natural (12 h) light and (12 h) dark cycle and have free access to food and water ad libitum. Animals were acclimatized to laboratory conditions before the tests. Study Design: Animals were divided into 8 groups of 10 animals in each group. • a) Group I: Control or vehicle treated group • b) Group II: Type 1 diabetic group • c) Group III: pharmaceutical preparation (90 mg/kg)+Diabetic animals • d) Group IV: pharmaceutical preparation (180 mg/kg)+Diabetic animals • e) Group V: pharmaceutical preparation (360 mg/kg)+Diabetic animals • f) Group VI: Satcol (60 mg/kg)+Diabetic animals • g) Group VII: pharmaceutical preparation (90 mg/kg)+Insulin (10IU)+Diabetic animals • h) Group VIII: Insulin (10IU)+Diabetic animals Drugs were administered for 28 days after confirmation of diabetes. Parameters to be evaluated: […]) Body weight, water and food intake was monitored weekly. • b) Blood Glucose Level: Glucose was estimated using diagnostic kits by GOD-POD method and the experiment was conducted following the manufacturer's instructions. • c) Oral Glucose Tolerance Test (OGTT): An oral glucose tolerance test was carried out in conscious rats. For this the rats was fasted overnight and glucose (2 g/kg b.w.) was given from 30% solution by oral gavage. Tail blood samples was collected before glucose load and sequentially for every half an hour after glucose load upto 90 minutes and was immediately analysed for glucose. • d) Measurement of Plasma Insulin Level: Insulin was estimated using insulin ELISA kit (LINCO) and the experiment was conducted following the manufacturer's instructions. It is a solid phase sandwich enzyme-linked immunosorbent assay (ELISA), which uses a microtitre plate reader at 450 nm. Concentrations of insulin were calculated from plotted standard curves. All results were expressed as Mean±SEM. The intergroup variation was measured by one-way analysis of variance (ANOVA) followed by Tukey's test. Statistical significance was considered at P<0.05. The statistical analysis was done using the SPSS Statistical Software version 16 (SPSS Inc. 233 South Wacker Drive, 11th Floor Chicago, IL 60606-6412).

## CCc1ccc(CCOc2ccc(CC3SC(=O)NC3=O)cc2)nc1 (stereo not drawn) [Pio, Pioglitazone]
[1]; Day 3
  Mean Plasma Glucose: 144 mg/dL
[1]; Day 7
  Mean Plasma Glucose: 149 mg/dL
[1]; Day 14
  Mean Plasma Glucose: 141 mg/dL
[1]; Day 21
  Mean Plasma Glucose: 132 mg/dL
[1]; Day 28
  Mean Plasma Glucose: 126 mg/dL
[2]; Day 1
  Glycosylated Hemoglobin: 6.66
[2]; Day 7
  Glycosylated Hemoglobin: 10.78
[2]; Day 14
  Glycosylated Hemoglobin: 9.67
[2]; Day 21
  Glycosylated Hemoglobin: 8.44
[2]; Day 28
  Glycosylated Hemoglobin: 7.96

## Insulin
[3]; 0.5 hour
  OGTT Mean Plasma Glucose: 389 ± 95.77 mg/dL
[3]; 2.0 hour
  OGTT Mean Plasma Glucose: 315 ± 102.13 mg/dL
[3]; 4.0 hour
  OGTT Mean Plasma Glucose: 311 ± 217.52 mg/dL
[3]; 8.0 hour
  OGTT Mean Plasma Glucose: 233 ± 29.73 mg/dL
[4]; 6th Week
  Mean Plasma Glucose: 226 ± 12.4 mg/dL
[4]; 10th Week
  Mean Plasma Glucose: 233 ± 16.0 mg/dL
[4]; Day 1
  Food Intake: 21 ± 0.66 gm
  Mean Body Weight: 278 ± 3.7 gm
  Mean Plasma Glucose: 352 ± 42.4 mg/dL
  Urine Volume: 9 ± 0.63 mL
  Water Intake: 9 ± 0.95 mL
[4]; Day 7
  Food Intake: 23 ± 0.43 gm
  Mean Body Weight: 277 ± 4.4 gm
  Mean Plasma Glucose: 249 ± 5.7 mg/dL
  Urine Volume: 16 ± 1.91 mL
  Water Intake: 14 ± 0.85 mL
[4]; Day 14
  Food Intake: 27 ± 0.58 gm
  Mean Body Weight: 280 ± 3.9 gm
  Mean Plasma Glucose: 222 ± 14.1 mg/dL
  Water Intake: 20 ± 0.86 mL
[4]; Day 21
  Food Intake: 30 ± 0.56 gm
  Mean Body Weight: 279 ± 4.5 gm
  Mean Plasma Glucose: 233 ± 13.3 mg/dL
  Urine Volume: 26 ± 3.61 mL
  Water Intake: 25 ± 2.77 mL
[4]; Day 28
  Food Intake: 34 ± 0.93 gm
  Mean Body Weight: 279 ± 4.9 gm
  Mean Plasma Glucose: 211 ± 8.6 mg/dL
  Urine Volume: 26 ± 4.43 mL
  Water Intake: 31 ± 3.08 mL
[5]; Day 1
  Percentage Change in plasma insulin: 0%
[5]; Day 7
  Percentage Change in plasma insulin: −42%
[5]; Day 14
  Percentage Change in plasma insulin: −39%
[5]; Day 21
  Percentage Change in plasma insulin: −37%
[5]; Day 28
  Percentage Change in plasma insulin: −34%

Reference: US20240041971A1, “A PROCESS OF PREPARATION OF FLOUR MIX AND ITS USE FOR THE TREATMENT OF DIABETES” (priority 2020, published 2024)
